Read-outs that look alike come from different tables or passages of the source.
What was measured:
[1] = biological target: MMP1 (Homo sapiens (Human), UniProt P03956); experiment: Selectivity assay, MMP1; format: biochemical
[2] = biological target: MMP9 (Homo sapiens (Human), UniProt P14780); experiment: Selectivity assay, MMP9; format: biochemical
[3] = biological target: T1, TACE enzyme (Homo sapiens (Human), UniProt P78536); experiment: Enzymatic assay for TACE inhibition (fluorescent substrate); format: biochemical
Target sequence in this assay (P78536 215-824 limits assumed): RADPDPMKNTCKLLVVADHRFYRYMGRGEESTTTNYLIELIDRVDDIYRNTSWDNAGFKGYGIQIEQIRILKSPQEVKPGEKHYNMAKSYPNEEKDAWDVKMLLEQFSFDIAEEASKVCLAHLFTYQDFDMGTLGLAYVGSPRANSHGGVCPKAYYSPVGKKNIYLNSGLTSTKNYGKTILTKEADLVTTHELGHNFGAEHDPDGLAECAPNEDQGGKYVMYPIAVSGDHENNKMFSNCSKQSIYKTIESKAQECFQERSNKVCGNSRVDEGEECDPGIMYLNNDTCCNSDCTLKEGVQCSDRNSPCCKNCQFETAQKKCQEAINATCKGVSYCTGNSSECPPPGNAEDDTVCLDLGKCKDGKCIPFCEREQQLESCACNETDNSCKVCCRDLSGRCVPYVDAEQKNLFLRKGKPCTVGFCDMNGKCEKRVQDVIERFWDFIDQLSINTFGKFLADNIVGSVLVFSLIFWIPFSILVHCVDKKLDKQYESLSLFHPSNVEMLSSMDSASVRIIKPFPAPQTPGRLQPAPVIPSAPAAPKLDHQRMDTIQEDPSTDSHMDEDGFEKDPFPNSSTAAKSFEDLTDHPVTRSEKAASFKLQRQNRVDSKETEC

[4] = biological target: ADAM10 (Homo sapiens (Human), UniProt O14672); experiment: Selectivity assay, ADAM10
[5] = biological target: T1, TACE enzyme; conditions: WO 00/44709; page 251, table 10, example 61; cited from earlier work
Target sequence in this assay (P78536 whole entry, looked up): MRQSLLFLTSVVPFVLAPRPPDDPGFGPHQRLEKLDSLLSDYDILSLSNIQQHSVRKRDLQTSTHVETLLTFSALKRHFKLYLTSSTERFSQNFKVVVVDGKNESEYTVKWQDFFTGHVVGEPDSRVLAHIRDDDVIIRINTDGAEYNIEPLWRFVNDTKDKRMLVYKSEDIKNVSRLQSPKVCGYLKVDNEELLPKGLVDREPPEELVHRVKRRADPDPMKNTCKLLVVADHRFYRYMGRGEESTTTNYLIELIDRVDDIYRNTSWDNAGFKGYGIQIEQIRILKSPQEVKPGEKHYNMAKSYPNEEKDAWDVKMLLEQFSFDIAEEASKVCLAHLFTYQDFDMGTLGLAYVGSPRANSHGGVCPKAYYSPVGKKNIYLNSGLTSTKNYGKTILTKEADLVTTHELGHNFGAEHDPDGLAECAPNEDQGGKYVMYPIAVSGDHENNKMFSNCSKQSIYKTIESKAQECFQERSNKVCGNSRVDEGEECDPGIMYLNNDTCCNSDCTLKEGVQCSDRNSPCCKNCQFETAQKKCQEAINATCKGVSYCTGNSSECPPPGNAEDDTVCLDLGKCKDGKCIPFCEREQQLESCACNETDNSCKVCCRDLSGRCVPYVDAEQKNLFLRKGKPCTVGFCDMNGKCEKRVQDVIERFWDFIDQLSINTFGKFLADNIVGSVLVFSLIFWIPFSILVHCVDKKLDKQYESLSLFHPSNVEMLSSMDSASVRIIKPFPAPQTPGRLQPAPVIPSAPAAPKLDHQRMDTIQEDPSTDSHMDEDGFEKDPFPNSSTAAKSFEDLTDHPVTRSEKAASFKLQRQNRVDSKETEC

[6] = biological target: MMP3 (Homo sapiens (Human), UniProt P08254); experiment: Selectivity assay, MMP3; format: biochemical
[7] = biological target: ADAM9 (Homo sapiens (Human), UniProt Q13443); experiment: Selectivity assay, ADAM9; format: biochemical
[8] = enzymatic assay, substrate 40 μM, read-out: IC50-TACE
[9] = TACE column of selectivity table, read-out: IC50 (nM) TACE

Chain of MMP9 (P14780 94-707, species assumed): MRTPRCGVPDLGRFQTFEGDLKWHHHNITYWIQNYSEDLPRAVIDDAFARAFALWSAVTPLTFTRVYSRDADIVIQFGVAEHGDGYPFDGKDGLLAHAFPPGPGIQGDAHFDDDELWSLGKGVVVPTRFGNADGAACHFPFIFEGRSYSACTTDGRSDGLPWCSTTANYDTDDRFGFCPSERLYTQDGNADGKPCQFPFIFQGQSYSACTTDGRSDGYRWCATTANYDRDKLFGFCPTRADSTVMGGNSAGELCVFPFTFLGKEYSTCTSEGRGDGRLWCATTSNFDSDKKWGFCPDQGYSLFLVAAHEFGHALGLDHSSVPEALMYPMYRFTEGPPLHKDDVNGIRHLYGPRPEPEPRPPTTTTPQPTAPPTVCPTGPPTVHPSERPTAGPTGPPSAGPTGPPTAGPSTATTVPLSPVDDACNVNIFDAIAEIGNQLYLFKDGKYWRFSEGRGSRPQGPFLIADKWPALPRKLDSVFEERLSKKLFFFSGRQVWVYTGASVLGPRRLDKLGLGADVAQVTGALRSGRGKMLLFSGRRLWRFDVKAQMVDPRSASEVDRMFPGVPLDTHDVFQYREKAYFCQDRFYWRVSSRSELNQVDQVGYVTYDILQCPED
Chain of ADAM10 (O14672 214-748, species assumed): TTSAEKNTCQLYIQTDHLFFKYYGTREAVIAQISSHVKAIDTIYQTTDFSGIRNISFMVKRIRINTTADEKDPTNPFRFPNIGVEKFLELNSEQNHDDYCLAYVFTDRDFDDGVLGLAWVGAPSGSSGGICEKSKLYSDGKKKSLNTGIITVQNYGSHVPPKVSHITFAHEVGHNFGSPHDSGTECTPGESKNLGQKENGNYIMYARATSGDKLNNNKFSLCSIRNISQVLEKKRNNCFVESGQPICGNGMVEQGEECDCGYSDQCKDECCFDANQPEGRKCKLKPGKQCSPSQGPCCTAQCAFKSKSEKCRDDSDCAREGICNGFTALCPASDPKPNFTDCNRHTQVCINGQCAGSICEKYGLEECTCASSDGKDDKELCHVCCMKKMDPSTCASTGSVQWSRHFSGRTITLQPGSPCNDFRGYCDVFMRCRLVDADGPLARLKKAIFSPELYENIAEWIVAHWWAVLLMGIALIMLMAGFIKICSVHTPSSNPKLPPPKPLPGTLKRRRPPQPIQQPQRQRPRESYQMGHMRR
Chain of MMP1 (P03956 100-469, species assumed): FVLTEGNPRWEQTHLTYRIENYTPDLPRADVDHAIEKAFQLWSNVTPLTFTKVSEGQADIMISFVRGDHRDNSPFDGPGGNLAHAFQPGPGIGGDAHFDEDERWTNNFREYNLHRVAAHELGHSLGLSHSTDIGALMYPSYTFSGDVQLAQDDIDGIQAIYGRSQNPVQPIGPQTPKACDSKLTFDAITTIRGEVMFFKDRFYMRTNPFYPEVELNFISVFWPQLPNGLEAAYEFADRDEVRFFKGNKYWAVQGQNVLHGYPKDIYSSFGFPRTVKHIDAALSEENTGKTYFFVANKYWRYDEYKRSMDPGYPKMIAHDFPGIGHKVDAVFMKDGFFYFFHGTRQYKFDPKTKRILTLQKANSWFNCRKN
Chain of MMP3 (P08254 100-477, species assumed): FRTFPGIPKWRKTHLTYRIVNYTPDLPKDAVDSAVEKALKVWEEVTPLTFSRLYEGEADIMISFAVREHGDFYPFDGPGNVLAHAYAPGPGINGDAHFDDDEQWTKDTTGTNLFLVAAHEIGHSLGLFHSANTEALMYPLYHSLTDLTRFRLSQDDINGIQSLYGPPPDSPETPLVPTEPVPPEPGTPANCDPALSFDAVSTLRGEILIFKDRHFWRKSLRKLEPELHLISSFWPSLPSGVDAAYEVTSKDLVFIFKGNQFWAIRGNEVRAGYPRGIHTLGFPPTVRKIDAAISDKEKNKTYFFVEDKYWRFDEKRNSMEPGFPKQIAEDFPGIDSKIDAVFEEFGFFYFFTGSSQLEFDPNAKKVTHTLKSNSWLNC
Chain of ADAM9 (Q13443 29-819, species assumed): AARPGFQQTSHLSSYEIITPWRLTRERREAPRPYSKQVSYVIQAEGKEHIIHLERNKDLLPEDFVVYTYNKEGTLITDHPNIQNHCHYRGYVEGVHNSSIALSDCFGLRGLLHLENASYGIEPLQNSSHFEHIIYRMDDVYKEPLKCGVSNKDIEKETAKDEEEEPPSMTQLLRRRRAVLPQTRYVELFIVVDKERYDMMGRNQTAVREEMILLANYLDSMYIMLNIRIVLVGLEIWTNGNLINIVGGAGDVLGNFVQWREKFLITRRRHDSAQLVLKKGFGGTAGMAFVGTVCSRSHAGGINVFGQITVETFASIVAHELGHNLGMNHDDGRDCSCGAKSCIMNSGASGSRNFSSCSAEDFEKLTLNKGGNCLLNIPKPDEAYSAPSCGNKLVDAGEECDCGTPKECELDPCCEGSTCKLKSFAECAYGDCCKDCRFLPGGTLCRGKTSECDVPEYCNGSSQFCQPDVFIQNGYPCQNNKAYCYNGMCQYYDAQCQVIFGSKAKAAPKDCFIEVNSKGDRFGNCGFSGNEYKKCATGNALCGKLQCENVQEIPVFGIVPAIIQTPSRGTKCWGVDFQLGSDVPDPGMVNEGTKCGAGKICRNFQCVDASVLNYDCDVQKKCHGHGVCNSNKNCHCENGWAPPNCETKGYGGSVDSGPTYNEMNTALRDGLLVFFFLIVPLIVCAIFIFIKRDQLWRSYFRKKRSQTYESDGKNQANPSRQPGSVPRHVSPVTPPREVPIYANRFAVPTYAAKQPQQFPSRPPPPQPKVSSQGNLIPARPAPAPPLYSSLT

| IC50 [1] [nM] | IC50 [6] [nM] | % TACE inhibition at 10 μM [3] [%] | IC50 [3, 8] [nM] | IC50 [3, 9] [nM] | SMILES | other results |
| --- | --- | --- | --- | --- | --- | --- |
| – | – | 100 | 32 | – | CC#CCOc1ccc(S(=O)(=O)NC[C@@H](C(=O)NO)N2CCN(S(C)(=O)=O)CC2)cc1 [Example 2, (S)-3-(4-but-2-ynyloxybenzenesulfonylamino)-N-hydroxy-2-(4-methanesulfonylpiperazin-1-yl)propionamide] | – |
| – | – | 99 | 52 | – | CS(=O)(=O)N1CCN([C@@H](CNS(=O)(=O)c2ccc(OCc3cccc4ccccc34)cc2)C(=O)NO)CC1 [Example 6, (S)-N-Hydroxy-2-(4-methanesulfonylpiperazin-1-yl)-3-[4-(naphthalen-1-ylmethoxy)benzenesulfonylamino]propionamide] | – |
| – | – | 100 | 127 | – | CS(=O)(=O)N1CCN([C@@H](CNS(=O)(=O)c2ccc(OCc3cccc(C#N)c3)cc2)C(=O)NO)CC1 [Example 8, (S)-3-[4-(3-Cyanobenzyloxy)benzenesulfonylamino]-N-hydroxy-2-(4-methanesulfonylpiperazin-1-yl)propionamide] | – |
| – | – | 100 | 147 | – | CS(=O)(=O)N1CCN([C@@H](CNS(=O)(=O)c2ccc(OCc3ccc(C#N)cc3)cc2)C(=O)NO)CC1 [Example 9, (S)-3-[4-(4-Cyanobenzyloxy)benzenesulfonylamino]-N-hydroxy-2-(4-methanesulfonylpiperazin-1-yl)propionamide] | – |
| – | – | 93 | – | – | Cc1cc(COc2ccc(S(=O)(=O)NC[C@@H](C(=O)NO)N3CCN(C(=O)OCc4ccccc4)CC3)cc2)c2ccccc2n1 [Example 10, Benzyl 4-{(S)-1-hydroxycarbamoyl-2-[4-(2-methylquinolin-4-ylmethoxy)benzenesulfonylamino]ethyl}piperazine-1-carboxylate] | – |
| – | – | 93 | 24 | – | CS(=O)(=O)N1CCN([C@@H](CNS(=O)(=O)c2ccc(OCc3ccnc(-c4ccccc4)c3)cc2)C(=O)NO)CC1 [Example 11, (S)-N-Hydroxy-2-(4-methanesulfonylpiperazin-1-yl)-3-[4-(2-phenylpyridin-4-ylmethoxy)benzenesulfonylamino]propionamide] | – |
| – | – | 96 | 108 | – | Cc1cc(COc2ccc(S(=O)(=O)NC[C@@H](C(=O)NO)N3CCNCC3)cc2)c2ccccc2n1 [Example 13, (S)-N-Hydroxy-3-[4-(2-methylquinolin-4-ylmethoxy)benzenesulfonylamino]-2-piperazin-1-ylpropionamide] | – |
| – | – | 96 | 168 | – | CS(=O)(=O)N1CCN([C@@H](CNS(=O)(=O)c2ccc(OCc3ccnc4ccccc34)cc2)C(=O)NO)CC1 [Example 16, (S)-N-Hydroxy-2-(4-methanesulfonylpiperazin-1-yl)-3-[4-(quinolin-4-ylmethoxy)benzenesulfonylamino]propionamide] | – |
| – | – | 91 | 62 | – | Cc1cc(COc2ccc(S(=O)(=O)NC[C@@H](C(=O)NO)N3CCN(Cc4ccccc4)CC3)cc2)c2ccccc2n1 [Example 17, (S)-2-(4-Benzylpiperazin-1-yl)-N-hydroxy-3-[4-(2-methylquinolin-4-ylmethoxy)benzenesulfonylamino]propionamide] | – |
| 670 | 849 | 90 | 67 | 67 | Cc1cc(COc2ccc(S(=O)(=O)NC[C@@H](C(=O)NO)N3CCN(Cc4ccc(F)cc4)CC3)cc2)c2ccccc2n1 [Example 18, (S)-2-[4-(4-Fluorobenzyl)piperazin-1-yl]-N-hydroxy-3-[4-(2-methylquinolin-4-ylmethoxy)benzenesulfonylamino]propionamide] | IC50 [2]: > 10000 nM; IC50 [4]: > 10000 nM; IC50 [7]: 9250 nM |
| 2300 | 1770 | 92 | 41 | 41 | CCN1CCN([C@@H](CNS(=O)(=O)c2ccc(OCc3cc(C)nc4ccccc34)cc2)C(=O)NO)CC1 [Example 19, (S)-2-(4-ethyl-piperazin-1-yl)-N-hydroxy-3-[4-(2-methylquinolin-4-yl-methoxy)benzenesulfonylamino]propionamide] | IC50 [2]: > 10000 nM; IC50 [4]: > 10000 nM; IC50 [7]: 3050 nM |
| 3940 | 4780 | – | – | – | Cc1cc(COc2ccc(S(=O)(=O)NC[C@@H](C(=O)NO)N3CCN(Cc4ccc(C(F)(F)F)cc4)CC3)cc2)c2ccccc2n1 [Example 20, (S)-N-Hydroxy-3-[4-(2-methylquinolin-4-ylmethoxy)benzenesulfonylamino]-2-[4-(4-trifluoromethylbenzyl)piperazin-1-yl]propionamide] | IC50 [2]: > 10000 nM; IC50 [4]: > 10000 nM; IC50 [7]: > 10000 nM |
| 1170 | 887 | 97 | 63 | 63 | Cc1ccc(CN2CCN([C@@H](CNS(=O)(=O)c3ccc(OCc4cc(C)nc5ccccc45)cc3)C(=O)NO)CC2)cc1 [Example 21, (S)-N-hydroxy-2-[4-(4-methylbenzyl)piperazin-1-yl]-3-[4-(2-methylquinolin-4-ylmethoxy)benzenesulfonylamino]propionamide] | – |
| 2220 | 1060 | 97 | 53 | 53 | Cc1cc(COc2ccc(S(=O)(=O)NC[C@@H](C(=O)NO)N3CCN(C(=O)C(C)C)CC3)cc2)c2ccccc2n1 [Example 23, (S)-N-hydroxy-2-(4-isobutyrylpiperazin-1-yl)-3-[4-(2-methylquinolin-4-ylmethoxy)-benzenesulfonylamino]propionamide] | – |
| 969 | 574 | 98 | 33 | 16 | Cc1cc(COc2ccc(S(=O)(=O)NC[C@@H](C(=O)NO)N3CCN(S(=O)(=O)C(C)C)CC3)cc2)c2ccccc2n1 [Example 26, (S)-N-hydroxy-3-[4-(2-methylquinolin-4-ylmethoxy)benzenesulfonylamino]-2-[4-(propane-2-sulfonyl)piperazin-1-yl]propionamide] | – |

| SMILES | IC50 [1] [nM] | IC50 [6] [nM] | % TACE inhibition at 10 μM [3] [%] | IC50 [3, 8] [nM] | IC50 [3, 9] [nM] | other results |
| --- | --- | --- | --- | --- | --- | --- |
| CC1(C)SCCN(S(=O)(=O)c2ccc(OCC#CCO)cc2)[C@H]1C(=O)NO [Apratastat, reference compound] | 145 | 10 | – | – | – | IC50 [2]: 82 nM; IC50 ([3]; read-out: IC50 (nM) TACE, TACE column of selectivity table): 5 nM; IC50 [4]: 71 nM; selectivity for the TACE enzyme compared with certain MMPs [5]: not selective; IC50 [7]: 85 nM |
| Cc1cc(COc2ccc(S(=O)(=O)NC[C@@H](C(=O)NO)N3CCN(S(C)(=O)=O)CC3)cc2)c2ccccc2n1 [Example 5, (S)-N-Hydroxy-2-(4-methanesulfonylpiperazin-1-yl)-3-[4-(2-methylquinolin-4-ylmethoxy)benzenesulfonylamino]propionamide] | 5100 | 3200 | 99 | 21 | 21 | – |
| Cc1cc(COc2ccc(S(=O)(=O)NC[C@@H](C(=O)NO)N3CCN(S(C)(=O)=O)CC3)cc2)c2ccccc2n1.Cl [Example 14, (S)-N-Hydroxy-2-(4-methanesulfonylpiperazin-1-yl)-3-[4-(2-methylquinolin-4-ylmethoxy)benzenesulfonylamino]propionamide hydrochloride] | – | – | 98 | – | – | IC50 ([3]; read-out: IC50-TACE, enzymatic assay, substrate 40 μM, listed as ex14, hydrochloride): 64 nM |
| Cc1cc(COc2ccc(S(=O)(=O)NC[C@@H](C(=O)NO)N3CCN(S(=O)(=O)CC(C)C)CC3)cc2)c2ccccc2n1 [Example 24, (S)-N-hydroxy-2-[4-(2-methylpropane-1-sulfonyl)piperazin-1-yl]-3-[4-(2-methylquinolin-4-ylmethoxy)benzenesulfonylamino]propionamide] | 2060 | 1880 | – | – | – | – |

— patent US8633196B2, “Benzenesulfonamide compounds, method for synthesizing same, and use thereof in medicine as well as in cosmetics” (Galderma Research & Development, priority 2009, dated 2014)
